Assay results: paper PMC12021087, “RFWD3 Reprograms Nucleotide Metabolism Through PHGDH to Induce Chemoresistance In Osteosarcoma” (Advanced Science, 2025)

Target: T1, RFWD3 (Ring Finger and WD Repeat Domain 3) (Homo sapiens, UniProt Q6PCD5)
T1 construct: endogenous full-length protein in whole lysate of 143B osteosarcoma cells, no tag
T1 sequence (Q6PCD5 1-774): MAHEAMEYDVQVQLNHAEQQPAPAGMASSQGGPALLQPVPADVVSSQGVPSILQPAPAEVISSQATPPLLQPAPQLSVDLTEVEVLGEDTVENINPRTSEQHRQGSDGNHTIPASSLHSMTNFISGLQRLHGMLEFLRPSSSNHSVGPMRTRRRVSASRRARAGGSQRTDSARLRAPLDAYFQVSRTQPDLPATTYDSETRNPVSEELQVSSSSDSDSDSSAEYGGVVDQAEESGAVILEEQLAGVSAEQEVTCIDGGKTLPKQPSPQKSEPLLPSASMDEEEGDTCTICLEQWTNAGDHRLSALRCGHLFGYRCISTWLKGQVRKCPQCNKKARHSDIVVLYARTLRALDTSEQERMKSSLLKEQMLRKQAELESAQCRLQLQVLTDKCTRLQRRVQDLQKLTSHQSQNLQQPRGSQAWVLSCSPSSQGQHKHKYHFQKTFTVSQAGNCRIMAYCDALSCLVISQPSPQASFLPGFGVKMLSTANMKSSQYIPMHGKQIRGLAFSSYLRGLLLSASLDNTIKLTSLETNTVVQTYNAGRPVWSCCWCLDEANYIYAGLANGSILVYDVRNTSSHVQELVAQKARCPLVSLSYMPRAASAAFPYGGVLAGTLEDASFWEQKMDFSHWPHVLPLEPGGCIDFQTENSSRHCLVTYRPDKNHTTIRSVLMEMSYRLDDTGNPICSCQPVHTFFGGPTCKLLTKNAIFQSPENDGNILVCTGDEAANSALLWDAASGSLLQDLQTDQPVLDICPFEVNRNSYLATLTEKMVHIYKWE
Experiment: CETSA (lysate, Western blot) and DARTS (pronase)
Format: biochemical
Conditions: 143B cell lysate; CETSA 10 µM lomitapide, 1 h room temperature, heated 5 min; DARTS 1 and 10 µM lomitapide, 4 h, pronase 2 µg/mL

## O=C(NC1CCN(CCCCC2(C(=O)NCC(F)(F)F)c3ccccc3-c3ccccc32)CC1)c1ccccc1-c1ccc(C(F)(F)F)cc1 [lomitapide]
  CETSA (lysate, Western blot) and DARTS (pronase): lomitapide protected RFWD3 from pronase degradation and significantly enhanced its thermal stability
